According to article PMC7899551, “Phase 1 study of Z-endoxifen in patients with advanced gynecologic, desmoid, and hormone receptor-positive solid tumors” (Oncotarget, 2021):
Like-named read-outs stand apart in the source and are kept apart here.

Test: Plasma pharmacokinetics of Z-endoxifen (HPLC assay, non-compartmental analysis)
Assay type: in vivo, human
Conditions: human, plasma, po
Method: This was an open-label trial of Z-endoxifen in patients with advanced solid tumors (https://clinicaltrials.gov/ identifier: NCT01273168). Z-endoxifen-HCl was supplied by the Pharmaceutical Management Branch, National Cancer Institute, as 20 and 40 mg capsules; agent was administered orally once daily on a continuous schedule in 28-day cycles with a starting dose of 20 mg/day taken either 1 hour before or 2 hours after meals. Dose escalation followed a traditional 3+3 design in which patients were dose-escalated to the next dose level (DL) in cohorts of 3 patients until dose-limiting toxicity (DLT) was observed. DLT was defined as an adverse event that occurred during cycle 1, was thought to be related to study drug administration, and met one of the following criteria: grade ≥ 3 non-hematologic toxicities (except diarrhea, nausea and vomiting, alopecia, rising creatinine or electrolyte toxicities that resolved within 24 hours, or intolerable estrogen withdrawal symptoms) or grade ≥ 3 hematologic toxicities (except neutropenia lasting less than 5 days, lymphopenia, or anemia). Eight dose levels (DL1-8) were examined: 20, 40, 60, 100, 140, 200, 280, and 360 mg, respectively. Two patients at DL8 received the free base form of Z-endoxifen on day 1 rather than the hydrochloride salt to assess the pharmacokinetics of that formulation.
A 3-mL blood sample was collected in a K2 EDTA tube on day 1 of cycle 1 before drug administration and at the following times post-first dose: 0.5, 1, 2, 3, 4, 6, 8, and 24 hours. Samples were collected at the same time points on day 28 of cycle 1 for DL1-6 until a protocol amendment eliminated the requirement for these samples at the higher dose levels. Samples were wrapped in aluminum foil after collection to protect from light exposure. A 10-mL aliquot of urine was collected before agent administration on cycle 1 day 1, for 24 hours after dosing on day 1, and before drug administration on cycle 2 day 1; samples were refrigerated prior to analysis.
Plasma and urine concentrations of Z- and E-endoxifen were measured using a validated, post-column fluorescence derivatization HPLC assay. Non-compartmental pharmacokinetic parameters were calculated using WinNonlin version 7.0 (Pharsight Corp., Mountainview, CA, USA). A 2 μM Cmax target was established for day 28 plasma concentration. The amount of Z-endoxifen excreted in urine was measured over a 24-hour collection period.

CC/C(=C(\c1ccc(O)cc1)c1ccc(OCCNC)cc1)c1ccccc1 [Z-endoxifen]
Cmax (20 mg/day, DL1 20 mg/day oral, day 28, mean, read-out: Cmax, Mean): 286 ng/mL
Tmax (20 mg/day, DL1 20 mg/day oral, day 28, mean, read-out: Tmax, Mean): 0.7 h
AUC(0-t) (40 mg, DL2 40 mg oral, day 1, individual patients, read-out: AUC(0-24h)): 1290 ng·h/mL
Cmax (40 mg, DL2 40 mg oral, day 1, individual patients, read-out: Cmax): 83.6 ng/mL
AUC(0-t) (40 mg, DL2 40 mg oral, day 1, mean, read-out: AUC(0-24h), Mean): 1650 ng·h/mL
concentration at 24 h (40 mg, DL2 40 mg oral, day 1, mean, read-out: C24h, Mean): 52.5 ng/mL
Cmax (40 mg, DL2 40 mg oral, day 1, mean, read-out: Cmax, Mean): 112 ng/mL
AUC(0-t) (40 mg/day, DL2 40 mg/day oral, day 28, individual patients, read-out: AUC(0-24h)): 5570 ng·h/mL
half-life (40 mg/day, DL2 40 mg/day oral, day 28, individual patients, read-out: Adjusted Half-Life (converted)): 39.3 h
concentration at 24 h (40 mg/day, DL2 40 mg/day oral, day 28, individual patients, read-out: C24h): 136 ng/mL
Cmax (40 mg/day, DL2 40 mg/day oral, day 28, individual patients, read-out: Cmax): 321 ng/mL
AUC(0-t) (40 mg/day, DL2 40 mg/day oral, day 28, mean, read-out: AUC(0-24h), Mean): 4760 ng·h/mL
concentration at 24 h (40 mg/day, DL2 40 mg/day oral, day 28, mean, read-out: C24h, Mean): 147 ng/mL
Cmax (40 mg/day, DL2 40 mg/day oral, day 28, mean, read-out: Cmax, Mean): 258 ng/mL
Tmax (40 mg/day, DL2 40 mg/day oral, day 28, mean, read-out: Tmax, Mean): 3.3 h
AUC(0-t) (60 mg, DL3 60 mg oral, day 1, individual patients, read-out: AUC(0-24h)): 1620 ng·h/mL
concentration at 24 h (60 mg, DL3 60 mg oral, day 1, individual patients, read-out: C24h): 89.7 ng/mL
Cmax (60 mg, DL3 60 mg oral, day 1, individual patients, read-out: Cmax): 89.7 ng/mL
AUC(0-t) (60 mg, DL3 60 mg oral, day 1, mean, read-out: AUC(0-24h), Mean): 2140 ng·h/mL
concentration at 24 h (60 mg, DL3 60 mg oral, day 1, mean, read-out: C24h, Mean): 82.7 ng/mL
Cmax (60 mg, DL3 60 mg oral, day 1, mean, read-out: Cmax, Mean): 122 ng/mL
Tmax (60 mg, DL3 60 mg oral, day 1, mean, read-out: Tmax, Mean): 12 h
AUC(0-t) (60 mg/day, DL3 60 mg/day oral, day 28, mean, read-out: AUC(0-24h), Mean): 8080 ng·h/mL
concentration at 24 h (60 mg/day, DL3 60 mg/day oral, day 28, mean, read-out: C24h, Mean): 345 ng/mL
Cmax (60 mg/day, DL3 60 mg/day oral, day 28, mean, read-out: Cmax, Mean): 417 ng/mL
Tmax (60 mg/day, DL3 60 mg/day oral, day 28, mean, read-out: Tmax, Mean): 10.8 h
AUC(0-t) (100 mg, DL4 100 mg oral, day 1, individual patients, read-out: AUC(0-24h)): 4640 ng·h/mL
concentration at 24 h (100 mg, DL4 100 mg oral, day 1, individual patients, read-out: C24h): 133 ng/mL
Cmax (100 mg, DL4 100 mg oral, day 1, individual patients, read-out: Cmax): 264 ng/mL
Tmax (100 mg, DL4 100 mg oral, day 1, individual patients, read-out: Tmax): 1 h
AUC(0-t) (100 mg, DL4 100 mg oral, day 1, mean, read-out: AUC(0-24h), Mean): 5000 ng·h/mL
concentration at 24 h (100 mg, DL4 100 mg oral, day 1, mean, read-out: C24h, Mean): 155 ng/mL
Cmax (100 mg, DL4 100 mg oral, day 1, mean, read-out: Cmax, Mean): 296 ng/mL
Tmax (100 mg, DL4 100 mg oral, day 1, mean, read-out: Tmax, Mean): 4.3 h
AUC(0-t) (100 mg/day, DL4 100 mg/day oral, day 28, individual patients, read-out: AUC(0-24h)): 13300 ng·h/mL
half-life (100 mg/day, DL4 100 mg/day oral, day 28, individual patients, read-out: Adjusted Half-Life (converted)): 36.8 h
concentration at 24 h (100 mg/day, DL4 100 mg/day oral, day 28, individual patients, read-out: C24h): 428 ng/mL
Cmax (100 mg/day, DL4 100 mg/day oral, day 28, individual patients, read-out: Cmax): 1300 ng/mL
Tmax (100 mg/day, DL4 100 mg/day oral, day 28, individual patients, read-out: Tmax): 2 h
AUC(0-t) (100 mg/day, DL4 100 mg/day oral, day 28, mean (one patient), read-out: AUC(0-24h), Mean): 13300 ng·h/mL
half-life (100 mg/day, DL4 100 mg/day oral, day 28, mean (one patient), read-out: Adjusted Half-Life, Mean (converted)): 36.8 h
concentration at 24 h (100 mg/day, DL4 100 mg/day oral, day 28, mean (one patient), read-out: C24h, Mean): 428 ng/mL
Cmax (100 mg/day, DL4 100 mg/day oral, day 28, mean, read-out: Cmax, Mean): 1010 ng/mL
Tmax (140 mg, DL5 140 mg oral, day 1, individual patients, read-out: Tmax): 3 h
AUC(0-t) (140 mg, DL5 140 mg oral, day 1, mean, read-out: AUC(0-24h), Mean): 9760 ng·h/mL
concentration at 24 h (140 mg, DL5 140 mg oral, day 1, mean, read-out: C24h, Mean): 311 ng/mL
Cmax (140 mg, DL5 140 mg oral, day 1, mean, read-out: Cmax, Mean): 610 ng/mL
Tmax (140 mg, DL5 140 mg oral, day 1, mean, read-out: Tmax, Mean): 4.3 h
AUC(0-t) (140 mg/day, DL5 140 mg/day oral, day 28, individual patients, read-out: AUC(0-24h)): 18200 ng·h/mL
half-life (140 mg/day, DL5 140 mg/day oral, day 28, individual patients, read-out: Adjusted Half-Life (converted)): 33.1 h
concentration at 24 h (140 mg/day, DL5 140 mg/day oral, day 28, individual patients, read-out: C24h): 598 ng/mL
Cmax (140 mg/day, DL5 140 mg/day oral, day 28, individual patients, read-out: Cmax): 973 ng/mL
Tmax (140 mg/day, DL5 140 mg/day oral, day 28, individual patients, read-out: Tmax): 1 h
AUC(0-t) (140 mg/day, DL5 140 mg/day oral, day 28, mean, read-out: AUC(0-24h), Mean): 17400 ng·h/mL
half-life (140 mg/day, DL5 140 mg/day oral, day 28, mean, read-out: Adjusted Half-Life, Mean (converted)): 30.6 h
concentration at 24 h (140 mg/day, DL5 140 mg/day oral, day 28, mean, read-out: C24h, Mean): 563 ng/mL
Cmax (140 mg/day, DL5 140 mg/day oral, day 28, mean, read-out: Cmax, Mean): 1110 ng/mL
AUC(0-t) (200 mg, DL6 200 mg oral, day 1, individual patients, read-out: AUC(0-24h)): 6340 ng·h/mL
concentration at 24 h (200 mg, DL6 200 mg oral, day 1, individual patients, read-out: C24h): 279 ng/mL
Tmax (200 mg, DL6 200 mg oral, day 1, individual patients, read-out: Tmax): 2 h
AUC(0-t) (200 mg, DL6 200 mg oral, day 1, mean, read-out: AUC(0-24h), Mean): 9220 ng·h/mL
concentration at 24 h (200 mg, DL6 200 mg oral, day 1, mean, read-out: C24h, Mean): 336 ng/mL
Cmax (200 mg, DL6 200 mg oral, day 1, mean, read-out: Cmax, Mean): 517 ng/mL
half-life (200 mg/day, DL6 200 mg/day oral, day 28, individual patients, read-out: Adjusted Half-Life (converted)): 34.8 h
AUC(0-t) (200 mg/day, DL6 200 mg/day oral, day 28, mean, read-out: AUC(0-24h), Mean): 30800 ng·h/mL
concentration at 24 h (200 mg/day, DL6 200 mg/day oral, day 28, mean, read-out: C24h, Mean): 1070 ng/mL
Cmax (200 mg/day, DL6 200 mg/day oral, day 28, mean, read-out: Cmax, Mean): 1640 ng/mL
Cmax (280 mg, DL7 280 mg oral, day 1, individual patients, read-out: Cmax): 888 ng/mL
Tmax (280 mg, DL7 280 mg oral, day 1, individual patients, read-out: Tmax): 3 h
AUC(0-t) (280 mg, DL7 280 mg oral, day 1, mean, read-out: AUC(0-24h), Mean): 15000 ng·h/mL
concentration at 24 h (280 mg, DL7 280 mg oral, day 1, mean, read-out: C24h, Mean): 468 ng/mL
Cmax (280 mg, DL7 280 mg oral, day 1, mean, read-out: Cmax, Mean): 930 ng/mL
Tmax (360 mg, DL8 360 mg oral, day 1, individual patients, read-out: Tmax): 2 h
AUC(0-t) (360 mg, DL8 360 mg oral, day 1, mean (excluding patients 35 and 36), read-out: AUC(0-24h), Mean): 20500 ng·h/mL
concentration at 24 h (360 mg, DL8 360 mg oral, day 1, mean (excluding patients 35 and 36), read-out: C24h, Mean): 676 ng/mL
Cmax (360 mg, DL8 360 mg oral, day 1, mean (excluding patients 35 and 36), read-out: Cmax, Mean): 1310 ng/mL
Tmax (360 mg, DL8 360 mg oral, day 1, mean (excluding patients 35 and 36), read-out: Tmax, Mean): 3.9 h
AUC(0-t) (360 mg, HCl salt, 360 mg oral, day 2 (after free base on day 1), mean of patients 35 and 36, read-out: AUC(0–24 h), Mean): 41600 ng·h/mL
concentration at 24 h (360 mg, HCl salt, 360 mg oral, day 2 (after free base on day 1), mean of patients 35 and 36, read-out: C24 h, Mean): 1470 ng/mL
concentration at 24 h (360 mg, HCl salt, 360 mg oral, day 2 (after free base on day 1), patients 35 and 36 individually, read-out: C24 h): 827 ng/mL
